How the values were obtained:
SIK2 [1] = target: T1, SIK2 (Homo sapiens, UniProt Q9H0K1); test: SIK2 Enzymatic Assay Version 1 (ADP Glo); type: biochemical; details: enzyme 0.6 nM, 160 μM ATP and 140 μM HDAC5tide (each 2× final concentration); 30 minutes pre-incubation, 4 hours; ADPGlo luminescence; read-out: SIK2 ADP Glo IC50 (μM) (Test Example 1)
How it was run: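 Kinase activity read as ADP production by ADP-Glo luminescence, all steps at room temperature. Compound and SIK2 (0.6 nM, a 2× concentration) were preincubated 30 min; ATP-only wells lacking peptide were the negative control; depletion 40 min, detection ≥30 min.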

SIK2 [2] = target: T1, SIK2; test: SIK2 Enzymatic Assay High Version 2 (High ATP); type: biochemical
How it was run: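 At room temperature, enzyme (6 nM, 2× final) was preincubated with compound for 30 min, then 6 mM ATP and 400 μM HDAC5tide (both 2× final) were added for 2 h. ADP formed was measured by ADP-Glo Max (2 h reagent, 1 h detection) using luminescence.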

T1 sequence (Q9H0K1 whole entry, species assumed): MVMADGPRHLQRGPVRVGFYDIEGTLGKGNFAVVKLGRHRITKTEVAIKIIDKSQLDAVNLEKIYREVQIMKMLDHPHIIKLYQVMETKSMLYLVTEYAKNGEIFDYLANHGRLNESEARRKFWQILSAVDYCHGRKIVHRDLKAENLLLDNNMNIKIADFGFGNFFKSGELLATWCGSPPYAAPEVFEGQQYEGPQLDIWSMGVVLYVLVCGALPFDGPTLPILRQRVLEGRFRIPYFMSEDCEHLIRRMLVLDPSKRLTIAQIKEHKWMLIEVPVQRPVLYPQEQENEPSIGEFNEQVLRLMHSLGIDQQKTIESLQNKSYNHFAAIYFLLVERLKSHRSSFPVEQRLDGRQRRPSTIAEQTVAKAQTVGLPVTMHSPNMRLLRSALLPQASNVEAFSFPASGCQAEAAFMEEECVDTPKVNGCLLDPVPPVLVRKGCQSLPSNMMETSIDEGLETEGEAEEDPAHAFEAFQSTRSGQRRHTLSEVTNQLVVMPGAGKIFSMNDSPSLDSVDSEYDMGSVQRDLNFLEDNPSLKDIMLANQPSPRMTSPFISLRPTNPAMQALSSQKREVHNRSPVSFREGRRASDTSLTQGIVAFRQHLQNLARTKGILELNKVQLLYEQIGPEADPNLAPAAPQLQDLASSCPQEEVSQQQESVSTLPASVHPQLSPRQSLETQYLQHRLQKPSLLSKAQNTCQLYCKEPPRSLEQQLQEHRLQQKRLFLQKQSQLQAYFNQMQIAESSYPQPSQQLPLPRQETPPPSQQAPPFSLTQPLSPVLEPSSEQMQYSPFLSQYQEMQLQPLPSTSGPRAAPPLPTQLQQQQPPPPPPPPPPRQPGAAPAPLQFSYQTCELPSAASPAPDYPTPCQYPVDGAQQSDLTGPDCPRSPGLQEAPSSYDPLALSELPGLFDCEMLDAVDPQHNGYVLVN

| SMILES | IC50 (SIK2 [1]) [µM] | IC50 (SIK2 [2]) [nM] |
| --- | --- | --- |
| N#Cc1cc(-c2ccn3nc(NC(=O)C4CC4)cc3c2)c(OCC2(N)CCC2)cn1 [Example 44, N-[5-[5-[(1-aminocyclobutyl)methoxy]-2-cyano-4-pyridyl]pyrazolo[1,5-a]pyridin-2-yl]cyclopropanecarboxamide] | 0.00124 | 26 |
| N#Cc1cc(-c2ccn3nc(NC(=O)C4CC4)cc3c2)c(OC2CC2)cn1 [Example 46, N-[5-[2-Cyano-5-(cyclopropoxy)-4-pyridyl]pyrazolo[1,5-a]pyridin-2-yl]cyclopropanecarboxamide] | 0.0141 | 185 |
| N#Cc1cc(-c2ccn3nc(NC(=O)C4CC4)cc3c2)c(OCc2cccnc2)cn1 [Example 47, N-[5-[2-Cyano-5-(3-pyridylmethoxy)-4-pyridyl]pyrazolo[1,5-a]pyridin-2-yl]cyclopropanecarboxamide] | 0.0135 | 154 |
| N#Cc1cc(-c2ccn3nc(NC(=O)C4CC4)cc3c2)c(OCc2ccccn2)cn1 [Example 48, N-(5-(2-Cyano-5-(pyridin-2-ylmethoxy)pyridin-4-yl)pyrazolo[1,5-a]pyridin-2-yl)cyclopropanecarboxamide] | 0.0109 | 118 |
| CN1CCC(COc2cnc(C#N)cc2-c2ccn3nc(NC(=O)C4CC4)cc3c2)CC1 [Example 51, N-[5-[2-cyano-5-[(1-methyl-4-piperidyl)methoxy]-4-pyridyl]pyrazolo[1,5-a]pyridin-2-yl]cyclopropanecarboxamide] | 0.00509 | 116 |
| CC(C)(O)COc1cnc(C#N)cc1-c1ccn2nc(NC(=O)C3CC3)cc2c1 [Example 52, N-[5-[2-Cyano-5-(2-hydroxy-2-methyl-propoxy)-4-pyridyl]pyrazolo[1,5-a]pyridin-2-yl]cyclopropanecarboxamide] | 0.00206 | 31.8 |
| N#Cc1cc(-c2ccn3nc(NC(=O)C4CC4)cc3c2)c(OC[C@H]2CC[C@H](O)CC2)cn1 [Example 53, trans-N-(5-(2-Cyano-5-(((1r,4r)-4-hydroxycyclohexyl)methoxy)pyridin-4-yl)pyrazolo[1,5-a]pyridin-2-yl)cyclopropanecarboxamide] | 0.000641 | 13.5 |
| CC(=O)N1CCC(COc2cnc(C#N)cc2-c2ccn3nc(NC(=O)C4CC4)cc3c2)CC1 [Example 60, N-[5-[5-[(1-acetyl-4-piperidyl)methoxy]-2-cyano-4-pyridyl]pyrazolo[1,5-a]pyridin-2-yl]cyclopropanecarboxamide] | 0.00492 | 98.6 |
| C[C@H](O)COc1cnc(C#N)cc1-c1ccn2nc(NC(=O)C3CC3)cc2c1 [Example 63, N-[5-[2-cyano-5-[(2S)-2-hydroxypropoxy]-4-pyridyl]pyrazolo[1,5-a]pyridin-2-yl]cyclopropanecarboxamide] | 0.00426 | 78.6 |
| N#Cc1cc(-c2ccn3nc(NC(=O)C4CC4)cc3c2)c(O[C@H]2CC[C@H](O)CC2)cn1 [Example 64, N-[5-[2-cyano-5-(4-hydroxycyclohexoxy)-4-pyridyl]pyrazolo[1,5-a]pyridin-2-yl]cyclopropanecarboxamide] | 0.000387 | 8.63 |
| CN1[C@@H]2CC[C@H]1C[C@@H](Oc1cnc(C#N)cc1-c1ccn3nc(NC(=O)C4CC4)cc3c1)C2 [Example 66, N-[5-[2-cyano-5-[[(1S,5R)-8-methyl-8-azabicyclo[3.2.1]octan-3-yl]oxy]-4-pyridyl]pyrazolo[1,5-a]pyridin-2-yl]cyclopropanecarboxamide] | 0.000561 | 8.5 |
| N#Cc1cc(-c2ccn3nc(NC(=O)C4CC4)cc3c2)c(OC[C@@H]2C[C@H]3CC[C@@H](C2)N3)cn1 [Example 67, N-[5-[5-[[(1S,5R)-8-azabicyclo[3.2.1]octan-3-yl]methoxy]-2-cyano-4-pyridyl]pyrazolo[1,5-a]pyridin-2-yl]cyclopropanecarboxamide] | 0.000631 | 8.63 |
| N#Cc1cc(-c2ccn3nc(NC(=O)C4CC4)cc3c2)c(OC[C@H]2C[C@@H](O)C2)cn1 [Example 68, N-[5-[2-cyano-5-[(3-hydroxycyclobutyl)methoxy]-4-pyridyl]pyrazolo[1,5-a]pyridin-2-yl]cyclopropanecarboxamide] | 0.000666 | 24 |
| N#Cc1cc(-c2ccn3nc(NC(=O)C4CC4)cc3c2)c(O[C@H]2C[C@@H](CO)C2)cn1 [Example 69, N-[5-[2-cyano-5-[3-(hydroxymethyl)cyclobutoxy]-4-pyridyl]pyrazolo[1,5-a]pyridin-2-yl]cyclopropanecarboxamide] | 0.0028 | 38.3 |
| N#Cc1cc(-c2ccn3nc(NC(=O)C4CC4)cc3c2)c(N2CC(O)C2)cn1 [Example 70, N-[5-[2-cyano-5-(3-hydroxyazetidin-1-yl)-4-pyridyl]pyrazolo[1,5-a]pyridin-2-yl]cyclopropanecarboxamide] | 0.0208 | 409 |
| CC(C)(O)CNc1cnc(C#N)cc1-c1ccn2nc(NC(=O)C3CC3)cc2c1 [Example 81, N-[5-[2-cyano-5-[(2-hydroxy-2-methyl-propyl)amino]-4-pyridyl]pyrazolo[1,5-a]pyridin-2-yl]cyclopropanecarboxamide] | 0.0154 | 278 |
| N#Cc1cc(-c2ccn3nc(NC(=O)C4CC4)cc3c2)c(O[C@H]2C[C@H]3CC[C@@H](C2)N3)cn1 [Example 82, (3-endo)-N-(5-(5-(((1R,3r,5S)-8-azabicyclo[3.2.1]octan-3-yl)oxy)-2-cyanopyridin-4-yl)pyrazolo[1,5-a]pyridin-2-yl)cyclopropanecarboxamide] | 0.000268 | 5.07 |
| CN1[C@@H]2CC[C@H]1C[C@@H](COc1cnc(C#N)cc1-c1ccn3nc(NC(=O)C4CC4)cc3c1)C2 [Example 83, N-(5-(2-cyano-5-(((1R,3R,5S)-8-methyl-8-azabicyclo[3.2.1]octan-3-yl)methoxy)pyridin-4-yl)pyrazolo[1,5-a]pyridin-2-yl)cyclopropanecarboxamide] | 0.00299 | 56.7 |
| CN1CCC(Oc2cnc(C#N)cc2-c2ccn3nc(NC(=O)C4CC4)cc3c2)CC1 [Example 85, N-[5-[2-cyano-5-[(1-methyl-4-piperidyl)oxy]-4-pyridyl]pyrazolo[1,5-a]pyridin-2-yl]cyclopropanecarboxamide] | 0.00256 | 50.7 |
| N#Cc1cc(-c2ccn3nc(NC(=O)C4CC4)cc3c2)c(O[C@H]2CC[C@@H](O)CC2)cn1 [Example 86, N-(5-(2-cyano-5-(((1s,4s)-4-hydroxycyclohexyl)oxy)pyridin-4-yl)pyrazolo[1,5-a]pyridin-2-yl)cyclopropanecarboxamide] | 0.000204 | 2.76 |
| CN1CCC[C@@H](Oc2cnc(C#N)cc2-c2ccn3nc(NC(=O)C4CC4)cc3c2)C1 [Example 88, (R)—N-(5-(2-cyano-5-((1-methylpiperidin-3-yl)oxy)pyridin-4-yl)pyrazolo[1,5-a]pyridin-2-yl)cyclopropanecarboxamide] | 0.00298 | 51.1 |
| C[C@]1(O)CC[C@@H](Oc2cnc(C#N)cc2-c2ccn3nc(NC(=O)C4CC4)cc3c2)CC1 [Example 89] | 0.000299 | 3.04 |
| N#Cc1cc(-c2ccn3nc(NC(=O)C4CC4)cc3c2)c(OC2C[C@H]3COC[C@@H](C2)N3)cn1 (stereo partly drawn) [Example 92, (3-endo)-N-[5-[2-cyano-5-[[(1R,5S)-3-oxa-9-azabicyclo[3.3.1]nonan-7-yl]oxy]-4-pyridyl]pyrazolo[1,5-a]pyridin-2-yl]cyclopropanecarboxamide] | 0.00013 | < 0.838 |
| CC1(C)CC(Oc2cnc(C#N)cc2-c2ccn3nc(NC(=O)C4CC4)cc3c2)CC(C)(C)N1 [Example 93, N-[5-[2-cyano-5-[(2,2,6,6-tetramethyl-4-piperidyl)oxy]-4-pyridyl]pyrazolo[1,5-a]pyridin-2-yl]cyclopropanecarboxamide] | 0.0359 | 1250 |
| C[C@@H](O)COc1cnc(C#N)cc1-c1ccn2nc(NC(=O)C3CC3)cc2c1 [Example 94, N-[5-[2-cyano-5-[(2R)-2-hydroxypropoxy]-4-pyridyl]pyrazolo[1,5-a]pyridin-2-yl]cyclopropanecarboxamide] | 0.00847 | 167 |
| N#Cc1cc(-c2ccn3nc(NC(=O)C4CC4)cc3c2)c(O[C@@H]2CNC[C@H](C(F)(F)F)C2)cn1 [Example 95, N-[5-[2-cyano-5-[[(3S,5R)-5-(trifluoromethyl)-3-piperidyl]oxy]-4-pyridyl]pyrazolo[1,5-a]pyridin-2-yl]cyclopropanecarboxamide] | 0.000435 | 2.58 |
| N#Cc1cc(-c2ccn3nc(NC(=O)C4CC4)cc3c2)c(OC[C@@H](O)C(F)(F)F)cn1 [Example 96, N-[5-[2-cyano-5-[(2R)-3,3,3-trifluoro-2-hydroxy-propoxy]-4-pyridyl]pyrazolo[1,5-a]pyridin-2-yl]cyclopropanecarboxamide] | 0.000912 | 16 |
| N#Cc1cc(-c2ccn3nc(NC(=O)C4CC4)cc3c2)c(OC[C@H](O)C(F)(F)F)cn1 [Example 97, N-[5-[2-cyano-5-[(2S)-3,3,3-trifluoro-2-hydroxy-propoxy]-4-pyridyl]pyrazolo[1,5-a]pyridin-2-yl]cyclopropanecarboxamide] | 0.00609 | 114 |
| CN[C@H]1C[C@@H](COc2cnc(C#N)cc2-c2ccn3nc(NC(=O)C4CC4)cc3c2)C1 [Example 98, N-(5-(2-cyano-5-(((1s,3s)-3-(methylamino)cyclobutyl)methoxy)pyridin-4-yl)pyrazolo[1,5-a]pyridin-2-yl)cyclopropanecarboxamide] | 0.000779 | 13.8 |
